Like-named read-outs stand apart in the source and are kept apart here.
How the values were obtained:
genotype 1b replicon = experiment: Antiviral activity in a genotype 1b replicon assay; format: cell-based, HCV; details: Hepatitis C virus
Experimental: General procedure: Huh-7 cells containing HCV Con1 subgenomic replicon (GS4.1 cells) were grown in Dulbecco's Modified Eagle Medium (DMEM) supplemented with 10% fetal bovine serum (FBS), 2 mM L-glutamine, 110 mg/L sodium pyruvate, 1× non-essential amino acids, 100 U/mL penicillin-streptomycin, and 0.5 mg/mL G418 (Invitrogen). For dose-response testing, the cells were seeded in 96-well plates at 7.5×10^3 cells/well in a volume of 50 μL, and incubated at 37° C./5% CO2. Three hours after plating, 50 μL of ten 2-fold serial dilutions of compounds (highest concentration, 75 μM) were added, and cell cultures were incubated at 37° C./5% CO2 in the presence of 0.5% DMSO. Alternatively, compounds were tested at a single concentration of 15 μM. In all cases, Huh-7 cells lacking the HCV replicon served as negative control. The cells were incubated in the presence of compounds for 72 hr after which they were monitored for expression of the NS4A protein by enzyme-linked immunosorbent assay (ELISA). For this, the plates were then fixed for 1 min with acetone/methanol (1:1, v/v), washed twice with phosphate-buffered saline (PBS), 0.1% Tween 20, blocked for 1 hr at room temperature with TNE buffer containing 10% FBS and then incubated for 2 hr at 37° C. with the anti-NS4A mouse monoclonal antibody A-236 (ViroGen) diluted in the same buffer. After washing three times with PBS, 0.1% Tween 20, the cells were incubated 1 hr at 37° C. with anti-mouse immunoglobulin G-peroxidase conjugate in TNE, 10% FBS. After washing as described above, the reaction was developed with O-phenylenediamine (Zymed). The reaction was stopped after 30 min with 2 NH2SO4, and absorbance was read at 492 nm using Sunrise Tecan spectrophotometer. EC50 values were determined from the % inhibition versus concentration data using a sigmoidal non-linear regression analysis based on four parameters with Tecan Magellan software. When screening at a single concentration, the results were expressed as % inhibition at 15 μM.
(§1) Compounds were tested in a genotype 1b replicon assay as described in Example 32 and the results are summarized in Table 6, wherein A represents a value smaller than 1 μM, and B represents a value between 1 μM to 10 μM, C represents a value between 10 μM to 75 μM and D represents a value greater than 75 μM.

[1] = Cytotoxicity evaluation (Cell Titer 96 AQueous One Solution Cell Proliferation Assay); format: cell-based; details: human; GS4.1 cells, cellular viability
Experimental: (§2) For cytotoxicity evaluation, GS4.1 cells were treated with compounds as described above and cellular viability was monitored using the Cell Titer 96 AQueous One Solution Cell Proliferation Assay (Promega). CC50 values were determined from the % cytotoxicity versus concentration data with Tecan Magellan software as described above.

mutant protease R155Q = experiment: Resistance profile, mutant protease R155Q; format: biochemical, HCV; details: ratio of inhibitory activity against mutant enzyme over non-mutant enzyme
Experimental: (§3) General procedure: Measurement of the inhibitory effect of compounds on HCV protease activity was performed with the SensoLyte™ 620 HCV Protease Assay kit from AnaSpec, Inc. (San Jose, Calif.) under conditions described by the supplier using 1.2 nM HCV NS3-NS4A protease, which was obtained according to Taremi et al. (Protein Science, 1998, 7, 2143-2149). The compounds were tested at a variety of concentrations in assay buffer containing a final DMSO concentration of 5%. Reactions were allowed to proceed for 60 min at room temperature and fluorescence measurements were recorded with a Tecan Infinity Spectrofluorimeter. The IC50 values were determined from the percent inhibition versus concentration data using a sigmoidal non-linear regression analysis based on four parameters with Tecan Magellan software.
(§4) Compounds were evaluated against three mutant proteases R155Q, A156S, and D168A, as summarized in Table 8, wherein A represents a value smaller than 1, and B represents a value between 1 to 10, and C represents a value greater than 10. The fold of change in inhibitory activity was determined by measuring the ratio of the inhibitory activity of a compound against a mutant enzyme over the inhibitory activity of the same compound against non-mutant enzyme. The inhibitory activity was determined using the procedure as described in Example 31.

[2] = system: HCV genotype 2a infectious virus; experiment: HCV genotype 2a infectious virus assay; format: cell-based, HCV (strain JFH-1; genotype 2a); details: Hepatitis C virus
Experimental: Compounds were tested in a HCV genotype 2a infectious virus assay and the results are summarized in Table 7, wherein A represents a value smaller than 1 μM, and B represents a value between 1 μM to 10 μM, C represents a value between 10 μM to 75 μM and D represents a value greater than 75 μM.
The HCV in vitro infection core ELISA assay measures the ability of a test compound to inhibit replication of an infectious HCV (strain JFH-1; genotype 2a) in cell culture. […] We have developed this model for determining the efficacy of antiviral compounds against an infectious virus in vitro using HCV producing cells (HPC), a proprietary Huh-7-derived cell sublineage capable of propagating the JFH-1 HCV virus. The readout of the assay is quantification of HCV core protein by ELISA 5 days post infection with JFH-1 virus and treatment with a test compound.
Ninety-six-well Corning Costar plates were seeded with HPC cells at a density of 3.0×10^3 cells per well in 50 μL of Huh-7 media. Compound stock solutions were made up freshly in Huh-7 media (DMEM (containing glucose, L-glutamine and sodium pyruvate), 10% FBS, 100 IU/mL penicillin, 100 μg/mL streptomycin, 2 mM GlutaMAX, 1% MEM non-essential amino acids) as 2× stock. Seven additional 3-fold drug dilutions were prepared from the 2× stocks in Huh-7 media. At least 4 hours after HPC cells were seeded, the media in the 96-well culture plates was aspirated and 50 μL of each drug dilution and 50 μL of JFH-1 HCV was added to each well.
At 16 hrs post treatment and infection, the virus inoculum was removed by aspiration. The cultures were treated at the same final concentrations of drug diluted to 1× in Huh-7 media to a final volume of 200 μL. Cells were incubated in the presence of drug for 4 additional days at 37° C./5% CO2.
Media was removed from the plates by aspiration. Cells were fixed with 250 μL 1:1 acetone:methanol for 90 seconds, washed once in PBS and then three times with 1×KPL wash solution. The assay plates were then blocked with 150 μL/well 10% FBS-TNE (50 mM Tris-HCl (pH 7.5; Sigma), 100 mM NaCl, 1 mM EDTA with 10% FBS) for 1 hr at room temperature. Cells were washed three times with 1×KPL wash solution and incubated with 100 μL/well anti-hepatitis C core mAb (1 mg/mL stock diluted 1:500 in 10% FBS-TNE) for 2 hours at 37° C. Cells were washed three times with 1×KPL wash solution and incubated with 100 μL/well HRP-goat anti-mouse antibody (diluted 1:2,500 in 10% FBS-TNE) for 1 hr at 37° C.
OPD solution was prepared using 1 OPD tablet+12 mL citrate/phosphate buffer (16 mM citric acid, 27 mM Na2HPO4) plus 5 μL 30% H2O2 per plate. Cells were washed three times with 1×KPL wash solution and developed with 100 μL/well OPD solution for 30 minutes in the dark at room temperature. The reaction was stopped with 100 μL/well of 2NH2SO4, and absorbance measured at A490 nm in a Victor^3 V 1420 multilabel counter (Perkin Elmer). The EC50 values for each compound were calculated from dose response curves from the resulting best-fit equations determined by Microsoft Excel and XLfit 4.1 software. The negative control for inhibition of virus replication was untreated HPC cells infected with the JFH-1 HCV virus strain. The negative ELISA control was untreated, uninfected HPC cells. The positive ELISA control was untreated HPC cells infected the JFH-1 HCV virus strain.

mutant protease A156S = experiment: Resistance profile, mutant protease A156S; format: biochemical, HCV; details: ratio of inhibitory activity against mutant enzyme over non-mutant enzyme
Experimental: as §3, §4

mutant protease D168A = experiment: Resistance profile, mutant protease D168A; format: biochemical, HCV; details: ratio of inhibitory activity against mutant enzyme over non-mutant enzyme
Experimental: as §3, §4

HCV NS3-NS4A protease = target: T1, HCV NS3-NS4A protease (Hepatitis C virus genotype 1b, UniProt P26663); experiment: HCV Protease Assay (SensoLyte 620 HCV Protease Assay kit); format: biochemical; details: 1.2 nM HCV NS3-NS4A protease, 60 min at room temperature, 5% DMSO
T1 construct: made in house
T1 sequence (P26663 1027-1208): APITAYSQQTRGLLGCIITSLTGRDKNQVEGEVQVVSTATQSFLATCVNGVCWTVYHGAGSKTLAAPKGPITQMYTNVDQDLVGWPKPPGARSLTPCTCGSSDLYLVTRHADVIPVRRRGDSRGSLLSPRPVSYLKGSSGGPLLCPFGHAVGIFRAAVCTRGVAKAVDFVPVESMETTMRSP
Summary of the method: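 Protease at 1.2 nM, run with the SensoLyte 620 fluorogenic kit under supplier conditions, with compounds at several concentrations in buffer with 5% final DMSO. Reactions ran 60 min at room temperature before fluorescence reading; IC50 from four-parameter sigmoidal fit of percent inhibition.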

[3] = system: Huh-7 cells containing HCV Con1 subgenomic replicon (GS4.1 cells); experiment: HCV Replicon Assay (NS4A ELISA); format: cell-based; details: NS4A protein by ELISA
Summary of the method: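 GS4.1 cells (Huh-7 with HCV Con1 subgenomic replicon) given ten 2-fold compound dilutions (top 75 μM) or a single 15 μM dose in 0.5% DMSO for 72 h at 37 °C. NS4A measured by cell ELISA (A492); EC50 from four-parameter sigmoidal fit, single-dose results as % inhibition at 15 μM.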

[4] = Cytotoxicity (CC50) in the genotype 1b replicon assay; format: cell-based; details: human, genotype 1b replicon assay as described in Example 32
Experimental: as §2, §1

GS4.1 cells = experiment: Cytotoxicity evaluation (Cell Titer 96 AQueous One Solution Cell Proliferation Assay); format: cell-based; details: cellular viability
Experimental: as §2

[5] = genotype 1b replicon assay as described in Example 32, read-out: EC50
[6] = Hepatitis C virus, Huh-7, 72 hr

Row | SMILES | EC50 (genotype 1b replicon; [5]) [nM] | CC50 [1] [nM] | Fold-Change R155Q (mutant protease R155Q) | EC50 [2] [nM] | Fold-Change A156S (mutant protease A156S) | Fold-Change D168A (mutant protease D168A) | IC50 (HCV NS3-NS4A protease) [nM] | EC50 [3, 6] [nM] | CC50 [4] [nM] | EC50 (genotype 1b replicon) [nM] | CC50 ([4]; GS4.1 cells) [nM] | CC50 (GS4.1 cells) [nM] | EC50 ([3]; 72 hr) [nM]
1 | COc1ccc2c(O[C@H]3C[C@H]4C(=O)N(C)CCCC/C=C\[C@@H]5C[C@@]5(C(=O)NS(=O)(=O)C5(C)CC5)NC(=O)N4C3)cc(-c3nc(C(C)C)cs3)nc2c1C [Compound 56b, (Z)-(4R,6S,15S,17S)-[17-[7-methoxy-8-methyl-2-(4-isopropylthiazol-2-yl)quinolin-4-yloxy]-13-N-methyl-2,14-dioxo-1,3,13-triazatricyclo[13.3.0.0]octadec-7-en-4-yl]carbonyl(1-methyl-cyclopropyl)sulfonamide] | < 1000 | > 75000 | A (A represents a value smaller than 1) | 1000 to 10000 | A (A represents a value smaller than 1) | C (C represents a value greater than 10) | < 1000 | < 1000 | 10000 to 75000 | – | – | – | –
2 | COc1ccc2c(O[C@H]3C[C@H]4C(=O)N(C)CCCC/C=C\[C@@H]5C[C@@]5(C(=O)NS(=O)(=O)C5(C)CC5)NC(=O)N4C3)cc(-c3nc(C(C)C)cs3)nc2c1Cl [Compound 56d, (Z)-(4R,6S,15S,17S)-[17-[8-chloro-7-methoxy-2-(4-isopropylthiazol-2-yl)quinolin-4-yloxy]-13-N-methyl-2,14-dioxo-1,3,13-triazatricyclo[13.3.0.0]octadec-7-en-4-yl]carbonyl(1-methyl-cyclopropyl)sulfonamide] | – | > 75000 | A (A represents a value smaller than 1) | < 1000 | A (A represents a value smaller than 1) | C (C represents a value greater than 10) | < 1000 | < 1000 | – | < 1000 | 10000 to 75000 | – | –
3 | COc1ccc2c(O[C@H]3C[C@H]4C(=O)N(C)CCCC/C=C\[C@@H]5C[C@@]5(C(=O)NS(=O)(=O)C5CC5)NC(=O)N4C3)cc(-n3ccc(C(F)(F)F)n3)nc2c1Cl [Compound 91e, (Z)-(4R,6S,15S,17S)-[17-[8-chloro-7-methoxy-2-(3-trifluoromethyl-1H-pyrazol-1-yl)quinolin-4-yloxy]-13-N-methyl-2,14-dioxo-1,3,13-triazatricyclo[13.3.0.0]octadec-7-ene-4-yl]carbonyl(cyclopropyl)sulfonamide] | < 1000 | > 75000 | A (A represents a value smaller than 1) | < 1000 | A (A represents a value smaller than 1) | C (C represents a value greater than 10) | < 1000 | < 1000 | – | – | 10000 to 75000 | – | –
4 | COc1ccc2c(O[C@H]3C[C@H]4C(=O)N(C)CCCC/C=C\[C@@H]5C[C@@]5(C(=O)NS(=O)(=O)C5CC5)NC(=O)N4C3)cc(-c3csc(C#N)n3)nc2c1Cl [Compound T1, (Z)-(4R,6S,15S,17S)-[17-[8-chloro-7-methoxy-2-(2-cyanothiazol-4-yl)quinolin-4-yloxy]-13-N-methyl-2,14-dioxo-1,3,13-triazatricyclo-[13.3.0.0]octadec-7-en-4-yl]carbonyl-(cyclopropyl)sulfonamide] | – | – | – | – | – | – | < 1000 | – | – | – | – | 10000 to 75000 | < 1000

— patent US8003659B2, “Macrocyclic serine protease inhibitors” (Indenix Pharmaceuticals, Inc., priority 2008, dated 2011)
